Assay results: the kinase profiling compilation of Christmann-Franck et al. (2016)

Assays:
Experiment in all cases: radiometric filter-binding kinase assay, Kinase HotSpot
Details in all cases: compound 0.5 µM; ATP 10 µM
[1] = biological target: ACVRL1 (human) (UniProt P37023)
[2] = biological target: AKT2 (human) (UniProt P31751)
[3] = biological target: ALK (human) (UniProt Q9UM73)
[4] = biological target: CAMK1D (human) (UniProt Q8IU85)
[5] = biological target: CDK5 CDK5R1 p25 (human) (UniProt Q00535+Q15078)
[6] = biological target: CLK1 (human) (UniProt P49759)
[7] = biological target: CSK (human) (UniProt P41240)
[8] = biological target: DDR2 (human) (UniProt Q16832)
[9] = biological target: DYRK3 (human) (UniProt O43781)
[10] = biological target: EPHA3 (human) (UniProt P29320)
[11] = biological target: EPHA8 (human) (UniProt P29322)
[12] = biological target: GRK4 (human) (UniProt P32298)
[13] = biological target: GRK6 (human) (UniProt P43250)
[14] = biological target: HIPK2 (human) (UniProt Q9H2X6)
[15] = biological target: IGF1R (human) (UniProt P08069)
[16] = biological target: IKBKE (human) (UniProt Q14164)
[17] = biological target: LCK (human) (UniProt P06239)
[18] = biological target: MAP3K9 (human) (UniProt P80192)
[19] = biological target: MAPK10 (human) (UniProt P53779)
[20] = biological target: MAPK14 (human) (UniProt Q16539)
[21] = biological target: MAPK3 (human) (UniProt P27361)
[22] = biological target: MARK2 (human) (UniProt Q7KZI7)
[23] = biological target: MELK (human) (UniProt Q14680)
[24] = biological target: MLTK (human) (UniProt Q9NYL2)
[25] = biological target: NEK9 (human) (UniProt Q8TD19)
[26] = biological target: NLK (human) (UniProt Q9UBE8)
[27] = biological target: NTRK3 (human) (UniProt Q16288)
[28] = biological target: PAK2 (human) (UniProt Q13177)
[29] = biological target: PAK4 (human) (UniProt O96013)
[30] = biological target: PAK7 (human) (UniProt Q9P286)
[31] = biological target: PBK (human) (UniProt Q96KB5)
[32] = biological target: PHKG1 (human) (UniProt Q16816)
[33] = biological target: PHKG2 (human) (UniProt P15735)
[34] = biological target: PLK1 (human) (UniProt P53350)
[35] = biological target: PRKCA (human) (UniProt P17252)
[36] = biological target: PRKD2 (human) (UniProt Q9BZL6)
[37] = biological target: PRKD3 (human) (UniProt O94806)
[38] = biological target: RPS6KA5 KD2 (human) (UniProt O75582)
[39] = biological target: SGK3 (human) (UniProt Q96BR1)
[40] = biological target: SRC (human) (UniProt P12931)
[41] = biological target: STK3 (human) (UniProt Q13188)
[42] = biological target: ZAP70 (human) (UniProt P43403)

NLK (human), sequence (Q9UBE8 whole entry, looked up): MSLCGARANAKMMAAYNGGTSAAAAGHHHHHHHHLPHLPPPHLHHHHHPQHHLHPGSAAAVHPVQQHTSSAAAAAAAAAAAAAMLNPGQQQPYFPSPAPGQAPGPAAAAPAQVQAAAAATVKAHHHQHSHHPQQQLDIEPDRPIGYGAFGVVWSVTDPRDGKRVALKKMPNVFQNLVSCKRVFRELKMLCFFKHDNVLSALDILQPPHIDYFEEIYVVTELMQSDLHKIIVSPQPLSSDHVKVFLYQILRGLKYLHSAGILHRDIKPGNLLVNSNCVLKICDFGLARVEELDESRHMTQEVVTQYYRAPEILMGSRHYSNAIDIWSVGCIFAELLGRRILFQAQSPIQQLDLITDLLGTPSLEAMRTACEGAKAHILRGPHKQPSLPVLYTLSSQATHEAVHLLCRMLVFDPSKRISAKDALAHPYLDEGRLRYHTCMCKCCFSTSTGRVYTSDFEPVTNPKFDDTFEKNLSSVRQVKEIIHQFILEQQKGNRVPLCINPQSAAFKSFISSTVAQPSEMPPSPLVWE
SRC (human), sequence (P12931 whole entry, looked up): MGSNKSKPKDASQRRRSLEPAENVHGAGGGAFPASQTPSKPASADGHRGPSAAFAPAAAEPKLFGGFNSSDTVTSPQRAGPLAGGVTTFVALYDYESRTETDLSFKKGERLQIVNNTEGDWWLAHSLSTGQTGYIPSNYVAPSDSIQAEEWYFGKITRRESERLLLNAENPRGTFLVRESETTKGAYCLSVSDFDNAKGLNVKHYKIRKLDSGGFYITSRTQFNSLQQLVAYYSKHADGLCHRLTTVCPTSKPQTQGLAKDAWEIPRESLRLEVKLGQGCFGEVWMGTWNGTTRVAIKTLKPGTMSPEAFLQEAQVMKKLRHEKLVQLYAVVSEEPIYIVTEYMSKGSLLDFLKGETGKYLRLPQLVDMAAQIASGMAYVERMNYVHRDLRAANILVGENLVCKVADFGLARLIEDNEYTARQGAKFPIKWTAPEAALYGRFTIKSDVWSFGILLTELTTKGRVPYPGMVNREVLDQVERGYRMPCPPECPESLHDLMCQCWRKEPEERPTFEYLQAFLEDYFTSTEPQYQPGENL
LCK (human), sequence (P06239 whole entry, looked up): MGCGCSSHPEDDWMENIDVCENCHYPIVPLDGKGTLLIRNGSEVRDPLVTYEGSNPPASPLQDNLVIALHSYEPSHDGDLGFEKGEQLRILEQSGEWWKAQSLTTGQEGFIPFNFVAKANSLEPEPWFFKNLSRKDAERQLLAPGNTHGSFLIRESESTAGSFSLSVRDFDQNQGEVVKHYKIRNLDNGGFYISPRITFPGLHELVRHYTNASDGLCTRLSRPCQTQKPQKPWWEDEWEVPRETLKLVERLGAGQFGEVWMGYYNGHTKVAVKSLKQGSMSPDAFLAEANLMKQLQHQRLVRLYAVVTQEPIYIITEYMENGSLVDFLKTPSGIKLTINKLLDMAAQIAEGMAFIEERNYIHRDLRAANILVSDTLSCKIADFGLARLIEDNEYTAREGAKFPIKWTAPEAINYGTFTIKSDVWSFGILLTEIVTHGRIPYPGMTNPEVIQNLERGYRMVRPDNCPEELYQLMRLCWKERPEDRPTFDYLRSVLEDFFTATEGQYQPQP
CDK5 CDK5R1 p25 (human), sequence (Q00535 whole entry, looked up): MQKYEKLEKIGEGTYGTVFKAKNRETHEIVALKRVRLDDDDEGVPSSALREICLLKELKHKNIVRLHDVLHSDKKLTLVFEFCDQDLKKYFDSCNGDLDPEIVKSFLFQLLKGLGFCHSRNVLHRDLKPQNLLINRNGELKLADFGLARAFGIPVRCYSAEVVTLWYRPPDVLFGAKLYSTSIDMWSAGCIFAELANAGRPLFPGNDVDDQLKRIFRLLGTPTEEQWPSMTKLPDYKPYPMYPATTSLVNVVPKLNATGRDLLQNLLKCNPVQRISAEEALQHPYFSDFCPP
CDK5 CDK5R1 p25 (human), sequence (Q15078 whole entry, looked up): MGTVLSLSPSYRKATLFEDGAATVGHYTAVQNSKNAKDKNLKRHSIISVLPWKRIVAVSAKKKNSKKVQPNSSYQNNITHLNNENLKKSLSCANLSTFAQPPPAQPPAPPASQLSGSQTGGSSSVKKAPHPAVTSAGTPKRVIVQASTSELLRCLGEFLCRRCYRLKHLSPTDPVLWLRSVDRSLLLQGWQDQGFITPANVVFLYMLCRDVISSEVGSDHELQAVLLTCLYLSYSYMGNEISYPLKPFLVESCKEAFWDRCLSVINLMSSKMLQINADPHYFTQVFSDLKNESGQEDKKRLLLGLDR
CAMK1D (human), sequence (Q8IU85 whole entry, looked up): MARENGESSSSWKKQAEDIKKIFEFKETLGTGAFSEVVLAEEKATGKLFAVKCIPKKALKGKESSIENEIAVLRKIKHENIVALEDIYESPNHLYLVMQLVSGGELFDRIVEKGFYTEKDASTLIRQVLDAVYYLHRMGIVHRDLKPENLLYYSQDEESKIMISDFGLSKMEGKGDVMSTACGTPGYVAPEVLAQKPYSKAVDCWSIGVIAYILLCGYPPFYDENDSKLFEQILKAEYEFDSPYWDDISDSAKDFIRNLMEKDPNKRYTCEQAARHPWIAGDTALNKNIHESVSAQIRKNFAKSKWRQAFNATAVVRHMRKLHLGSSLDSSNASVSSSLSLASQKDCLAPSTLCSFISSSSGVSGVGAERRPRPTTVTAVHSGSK
SGK3 (human), sequence (Q96BR1 whole entry, looked up): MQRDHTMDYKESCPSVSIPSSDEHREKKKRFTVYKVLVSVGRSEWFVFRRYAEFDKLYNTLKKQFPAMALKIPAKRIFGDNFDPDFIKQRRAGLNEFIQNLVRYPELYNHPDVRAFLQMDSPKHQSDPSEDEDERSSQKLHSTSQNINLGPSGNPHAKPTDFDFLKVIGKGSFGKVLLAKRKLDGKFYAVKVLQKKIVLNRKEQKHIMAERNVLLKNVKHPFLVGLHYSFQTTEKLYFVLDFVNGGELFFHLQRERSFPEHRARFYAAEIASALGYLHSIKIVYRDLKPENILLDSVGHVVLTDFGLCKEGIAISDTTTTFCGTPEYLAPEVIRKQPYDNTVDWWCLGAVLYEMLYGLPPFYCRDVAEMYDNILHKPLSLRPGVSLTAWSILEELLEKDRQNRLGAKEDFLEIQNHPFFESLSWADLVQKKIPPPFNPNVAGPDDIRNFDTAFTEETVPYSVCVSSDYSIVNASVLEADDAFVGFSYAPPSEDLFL
PHKG1 (human), sequence (Q16816 whole entry, looked up): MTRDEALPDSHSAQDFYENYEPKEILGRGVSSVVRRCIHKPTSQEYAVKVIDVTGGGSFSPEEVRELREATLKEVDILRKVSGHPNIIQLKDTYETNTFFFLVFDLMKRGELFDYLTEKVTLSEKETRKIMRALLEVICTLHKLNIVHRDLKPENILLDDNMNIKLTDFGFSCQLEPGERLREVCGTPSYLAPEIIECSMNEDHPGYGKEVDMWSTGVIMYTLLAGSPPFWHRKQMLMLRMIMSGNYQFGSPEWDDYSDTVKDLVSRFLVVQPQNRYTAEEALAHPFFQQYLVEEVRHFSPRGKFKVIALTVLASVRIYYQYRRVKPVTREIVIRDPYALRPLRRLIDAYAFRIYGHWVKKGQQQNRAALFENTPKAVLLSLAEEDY
CLK1 (human), sequence (P49759 whole entry, looked up): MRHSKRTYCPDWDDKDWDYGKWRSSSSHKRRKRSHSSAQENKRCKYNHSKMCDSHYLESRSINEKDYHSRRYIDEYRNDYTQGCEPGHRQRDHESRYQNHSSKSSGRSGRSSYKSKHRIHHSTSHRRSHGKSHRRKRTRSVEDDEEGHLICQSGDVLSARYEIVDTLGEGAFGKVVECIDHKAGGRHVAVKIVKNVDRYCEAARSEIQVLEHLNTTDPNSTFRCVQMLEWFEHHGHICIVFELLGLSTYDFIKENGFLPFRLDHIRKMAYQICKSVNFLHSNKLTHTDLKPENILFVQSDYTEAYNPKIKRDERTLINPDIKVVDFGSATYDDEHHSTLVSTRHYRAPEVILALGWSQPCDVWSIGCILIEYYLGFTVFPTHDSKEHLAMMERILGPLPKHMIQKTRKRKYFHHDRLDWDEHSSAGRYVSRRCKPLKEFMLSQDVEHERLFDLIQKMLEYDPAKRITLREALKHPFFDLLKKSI
PBK (human), sequence (Q96KB5 whole entry, looked up): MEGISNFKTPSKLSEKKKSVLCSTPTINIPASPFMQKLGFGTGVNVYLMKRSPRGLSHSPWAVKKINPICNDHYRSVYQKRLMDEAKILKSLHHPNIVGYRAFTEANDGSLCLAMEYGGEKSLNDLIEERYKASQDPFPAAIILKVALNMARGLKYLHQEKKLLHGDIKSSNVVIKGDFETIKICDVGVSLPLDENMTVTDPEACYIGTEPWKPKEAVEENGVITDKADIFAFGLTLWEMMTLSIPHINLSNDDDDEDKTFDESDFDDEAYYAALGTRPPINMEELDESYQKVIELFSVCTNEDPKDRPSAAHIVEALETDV

## COc1ccc2c(c1)c(C1=C(c3c[nH]c4ccccc34)C(=O)NC1=O)cn2CCCN(C)C
[1]
  residual activity: 87.8%
[2]
  residual activity: 110%
[3]
  residual activity: 96%
[4]
  residual activity: 73.3%
[5]
  residual activity: 114%
[6]
  residual activity: 48.2%
[7]
  residual activity: 84%
[8]
  residual activity: 101%
[9]
  residual activity: 81%
[10]
  residual activity: 94.1%
[11]
  residual activity: 102%
[12]
  residual activity: 92.8%
[13]
  residual activity: 96.2%
[14]
  residual activity: 96.3%
[15]
  residual activity: 115%
[16]
  residual activity: 100%
[17]
  residual activity: 93.6%
[18]
  residual activity: 57.6%
[19]
  residual activity: 88.8%
[20]
  residual activity: 103%
[21]
  residual activity: 93%
[22]
  residual activity: 91.8%
[23]
  residual activity: 70.7%
[24]
  residual activity: 95.9%
[25]
  residual activity: 90.3%
[26]
  residual activity: 87.9%
[27]
  residual activity: 54.9%
[28]
  residual activity: 108%
[29]
  residual activity: 94.8%
[30]
  residual activity: 67.6%
[31]
  residual activity: 96.8%
[32]
  residual activity: 66.4%
[33]
  residual activity: 98.3%
[34]
  residual activity: 104%
[35]
  residual activity: 3.14%
[36]
  residual activity: 92.3%
[37]
  residual activity: 91.9%
[38]
  residual activity: 61.3%
[39]
  residual activity: 101%
[40]
  residual activity: 79.8%
[41]
  residual activity: 72.2%
[42]
  residual activity: 90.3%

## COc1ccc(Cl)cc1NC(=O)Nc1cc(C)nc2ccccc12
[1]
  residual activity: 98.6%
[2]
  residual activity: 94.9%
[3]
  residual activity: 99.2%
[4]
  residual activity: 99.9%
[5]
  residual activity: 105%
[6]
  residual activity: 97.6%
[7]
  residual activity: 99.9%
[8]
  residual activity: 97.7%
[9]
  residual activity: 106%
[10]
  residual activity: 99.1%
[11]
  residual activity: 97.8%
[12]
  residual activity: 105%
[13]
  residual activity: 105%
[14]
  residual activity: 101%
[15]
  residual activity: 94.9%
[16]
  residual activity: 107%
[17]
  residual activity: 98.2%
[18]
  residual activity: 98.6%
[19]
  residual activity: 86%
[20]
  residual activity: 98.5%
[21]
  residual activity: 94.6%
[22]
  residual activity: 99.5%
[23]
  residual activity: 106%
[24]
  residual activity: 99.7%
[25]
  residual activity: 104%
[26]
  residual activity: 94.5%
[27]
  residual activity: 102%
[28]
  residual activity: 97.2%
[29]
  residual activity: 77.9%
[30]
  residual activity: 85.1%
[31]
  residual activity: 98.5%
[32]
  residual activity: 102%
[33]
  residual activity: 98.6%
[34]
  residual activity: 96.9%
[35]
  residual activity: 132%
[36]
  residual activity: 99.8%
[37]
  residual activity: 97.1%
[38]
  residual activity: 88.4%
[39]
  residual activity: 108%
[40]
  residual activity: 99%
[41]
  residual activity: 98.9%
[42]
  residual activity: 94.9%

## O=C1C(Cl)=C(N2C(=O)CCC2=O)C(=O)c2ccccc21
[1]
  residual activity: 105%
[2]
  residual activity: 96.3%
[3]
  residual activity: 88.5%
[4]
  residual activity: 102%
[5]
  residual activity: 87.3%
[6]
  residual activity: 103%
[7]
  residual activity: 79.5%
[8]
  residual activity: 95.8%
[9]
  residual activity: 95.4%
[10]
  residual activity: 105%
[11]
  residual activity: 107%
[12]
  residual activity: 97.6%
[13]
  residual activity: 98.5%
[14]
  residual activity: 104%
[15]
  residual activity: 107%
[16]
  residual activity: 99.6%
[17]
  residual activity: 106%
[18]
  residual activity: 106%
[19]
  residual activity: 93.6%
[20]
  residual activity: 88.1%
[21]
  residual activity: 99.3%
[22]
  residual activity: 79.4%
[23]
  residual activity: 96.4%
[24]
  residual activity: 97.9%
[25]
  residual activity: 98.3%
[26]
  residual activity: 105%
[27]
  residual activity: 98.6%
[28]
  residual activity: 104%
[29]
  residual activity: 114%
[30]
  residual activity: 108%
[31]
  residual activity: 106%
[32]
  residual activity: 96.5%
[33]
  residual activity: 100%
[34]
  residual activity: 97.6%
[35]
  residual activity: 99.1%
[36]
  residual activity: 95.7%
[37]
  residual activity: 88.2%
[38]
  residual activity: 101%
[39]
  residual activity: 103%
[40]
  residual activity: 95.1%
[41]
  residual activity: 98.2%
[42]
  residual activity: 93.8%

## Cc1cccc(-c2nc(C(C)(C)C)[nH]c2-c2ccc3c(c2)OCO3)n1
[1]
  residual activity: 127%
[2]
  residual activity: 80.1%
[3]
  residual activity: 103%
[4]
  residual activity: 102%
[5]
  residual activity: 90.1%
[6]
  residual activity: 98%
[7]
  residual activity: 102%
[8]
  residual activity: 98.3%
[9]
  residual activity: 102%
[10]
  residual activity: 101%
[11]
  residual activity: 89.9%
[12]
  residual activity: 101%
[13]
  residual activity: 101%
[14]
  residual activity: 101%
[15]
  residual activity: 96.2%
[16]
  residual activity: 91.8%
[17]
  residual activity: 97.9%
[18]
  residual activity: 94%
[19]
  residual activity: 96%
[20]
  residual activity: 89.7%
[21]
  residual activity: 111%
[22]
  residual activity: 90%
[23]
  residual activity: 92.7%
[24]
  residual activity: 97.8%
[25]
  residual activity: 95.6%
[26]
  residual activity: 87.9%
[27]
  residual activity: 92.4%
[28]
  residual activity: 72.4%
[29]
  residual activity: 77.5%
[30]
  residual activity: 92.7%
[31]
  residual activity: 103%
[32]
  residual activity: 87.6%
[33]
  residual activity: 107%
[34]
  residual activity: 105%
[35]
  residual activity: 99.6%
[36]
  residual activity: 93.6%
[37]
  residual activity: 89.3%
[38]
  residual activity: 97.5%
[39]
  residual activity: 98%
[40]
  residual activity: 96%
[41]
  residual activity: 97.7%
[42]
  residual activity: 106%
